Results on one molecule are retold here after patent US20210161855A1, “5-LIPOXYGENASE ANTAGONISTS” (INSTITUTO DE MEDICINA MOLECULAR JOÃO LOBO ANTUNES, priority 2017, published 2021).

Converted amounts (≈) assume the structure as drawn. Like-named read-outs stand apart in the source and are kept apart here. A value given as a limit tells only on which side of the number the result lay.

One series has as its system HEL. As to the kind of experiment: Cell viability, AML model HEL (FIG. 9a). The note with it: Homo sapiens, n=3. Format: cell-based.
The target of another series is T1, 5-LO (Homo sapiens, UniProt P09917).
T1 sequence (P09917 1-674): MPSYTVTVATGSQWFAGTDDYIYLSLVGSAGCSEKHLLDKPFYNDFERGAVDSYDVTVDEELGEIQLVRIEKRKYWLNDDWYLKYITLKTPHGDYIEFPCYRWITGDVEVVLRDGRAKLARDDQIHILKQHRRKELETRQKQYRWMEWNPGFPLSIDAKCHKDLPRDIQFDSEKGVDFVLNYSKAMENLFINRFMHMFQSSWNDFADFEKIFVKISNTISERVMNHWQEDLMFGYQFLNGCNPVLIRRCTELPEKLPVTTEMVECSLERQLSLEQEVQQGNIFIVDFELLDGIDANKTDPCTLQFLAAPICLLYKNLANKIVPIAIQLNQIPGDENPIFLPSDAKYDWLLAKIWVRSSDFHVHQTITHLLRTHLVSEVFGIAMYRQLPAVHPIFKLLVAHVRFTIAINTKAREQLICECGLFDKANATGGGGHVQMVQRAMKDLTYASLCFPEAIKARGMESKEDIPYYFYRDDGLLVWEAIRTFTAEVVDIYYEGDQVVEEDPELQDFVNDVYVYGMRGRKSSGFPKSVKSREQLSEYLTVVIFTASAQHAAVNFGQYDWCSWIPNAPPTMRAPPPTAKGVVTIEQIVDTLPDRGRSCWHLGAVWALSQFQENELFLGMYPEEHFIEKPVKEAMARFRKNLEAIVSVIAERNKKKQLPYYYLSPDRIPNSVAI
Description: Cell-free activity assay of human recombinant 5-LO. The format is biochemical. Set-up: made in house; host or cells: E. coli (BL21), plasmid pT3-5-LO. Here is the method: E. coli(BL21) was transformed with pT3-5-LO plasmid, and recombinant 5-LO protein was expressed at 30° C. as described.^34 Cells were lysed in 50 mM triethanolamine/HCl pH 8.0, 5 mM EDTA, 1 mM phenylmethanesulphonyl fluoride, soybean trypsin inhibitor (60 μg/mL), and lysozyme (1 mg/mL), homogenized by sonication (3×15 s), and centrifuged at 40,000×g for 20 min at 4° C. The 40,000×g supernatant (S40) was applied to an ATP-agarose column to partially purify 5-LO as described.^70 Aliquots of semi-purified 5-LO (0.5 μg) were diluted with 1 mL ice-cold PBS containing 1 mM EDTA. Samples were pre-incubated with the test compound or vehicle (0.1% DMSO) with or without Triton X-100 and/or 1 mM DTT, as indicated. After 10 min at 4° C., samples were pre-warmed for 30 s at 37° C., and 2 mM CaCl2 plus the indicated concentrations of arachidonic acid (AA) were added to start the formation of 5-LO products. After 10 min, the reaction was stopped by addition of one volume of ice-cold methanol, and the formed 5-LO products were analyzed by RP-HPLC as described.^71 5-LO products include the all-trans isomers of LTB4 (tr-LTB4 isomers) as well as 5(S)-hydroperoxy-6-trans-8,11,14-cis-eicosatetraenoic acid (5-HPETE) and its corresponding alcohol 5(S)-hydroxy-6-trans-8,11,14-cis-eicosatetraenoic acid (5-HETE). For phosphatidylcholine competition assays (3 or 30 μg/ml PC) samples were pre-incubated on ice with β-lapachone with or without 1 mM DDT or vehicle (0.1% DMSO) for 10 minutes. After addition of 2 mM CaCl2) and 20 μM AA the incubation was continued for 10 minutes at 37° C. and after that stopped with methanol.
Data are expressed as mean±S.E.M. IC50 values were calculated from averaged measurements at 6 different concentrations of the compound by nonlinear regression using GraphPad Prism software (San Diego, Calif.) one site binding competition. Statistical evaluation of the data was performed by one-way ANOVA followed by a Tukey-Kramer post-hoc test for multiple comparisons respectively. A p value<0.05 (*) was considered significant.

The nature of series [1]: Dynamic light scattering, colloidal aggregation. The note with it: relevant concentrations. The format is physicochemical. Here is the method: Dynamic light scattering (Zetasizer Nano S, Malvern, UK) was used to determine compound colloidal aggregation potential and kinetic solubility. The particle sizes were measured at 25° C. […] Colloidal aggregation was measured through sequential dilutions. Solubility was assessed at 25 μM after 0 and 30 minutes.

The test system of series [2] is Staphylococcus aureus ATCC 25923. Description: MIC/MBC assay, S. aureus. Format: cell-based. Here is the method: Escherichia coli K12 and Staphylococcus aureus ATCC 25923 were grown overnight at 37° C. and re-inoculated in 24-well plates containing 2.5 mL of Luria Bertani medium (LB) to give an optical density of ˜0.01 at 600 nm. Stock solutions of β-lapachone, and lapachol were prepared in DMSO (1% final concentration) and added to the cell suspensions to obtain final concentrations between 5-210 μM. Wells containing a growth control (cell suspensions with 1% DMSO) and a sterile media control were also prepared. The plates were incubated for 18 h at 37° C. and 90 r.p.m. The concentration of compound in the first well in the series that presented no sign of visible growth was reported as the MIC. The OD600 of the cultures was also measured. All the MIC wells were serially diluted in phosphate buffer saline (PBS) and plated onto LB agar plates.

Take `CC1(C)CCC2=C(O1)c1ccccc1C(=O)C2=O` [Compound 1, 3,4-dihydro-2,2-dimethyl-2H-naphtho[1,2-b]pyran-5,6-dione]: the IC50 stood at 0.9 µM in the series with HEL; 0.1 µM on 5-LO (3 μg/mL phosphatidylcholine, n=3, read-out: IC50 (3 μg/mL, PC), competition assay with phosphatidylcholine); 1 µM at 5-LO (30 μg/mL phosphatidylcholine, n=3, read-out: IC50 (30 μg/mL, PC), competition assay with phosphatidylcholine); 0.09 µM at 5-LO (1 mM DTT, 0.01% Triton X100, n=3, read-out: IC50 (with Triton X100), inhibition of 5-LO); 0.12 µM at 5-LO (1 mM DTT, no Triton X100, n=3, read-out: IC50 (without Triton X100), inhibition of 5-LO); 0.24 µM at 5-LO (1 mM dithiothreitol (DTT), n=3, read-out: IC50 (with DTT), inhibition of 5-LO in a cell-free assay). Also, the IC50 at 5-LO (absence of DTT, n=3, read-out: IC50 (without DTT), inhibition of 5-LO in a cell-free assay) is > 30 µM. Moreover, at 5-LO (arachidonic acid 2.5-40 μM), the “Effect of arachidonic acid concentration on potency” value is “only to minor alterations of the potency”. Besides, the “5-LO modulation in absence of dithiothreitol” value at 5-LO (cell-free, no DTT, up to 30 μM) is “negligible 5-LO modulation”. Further, the “5-LO activity after wash-out” value on 5-LO (wash-out of compound) is on record as “could be reinstated upon wash-out”. The Colloidal aggregation entry in series [1] is given as “no colloidal aggregation”. Further, the MIC in series [2] (ATCC25923, 18 h, read-out: Minimum inhibitory concentration) was determined as 60 µM (≈ 14.5 µg/mL). Besides, the MBC in series [2] (ATCC25923, read-out: Minimum bactericidal concentration) is > 200 µM.
